Laboratory results: patent US9643967B2, “Pyrrolo[3,2-c]pyridine derivatives as TLR inhibitors” (TAKEDA PHARMACEUTICAL COMPANY LIMITED, priority 2013, dated 2017)
Like-named read-outs stand apart in the source and are kept apart here.

Target: T1, mTLR9 (Mus musculus, UniProt Q9EQU3)
T1 construct: Splenocytes isolated from male C57/BL6 mice; from tissue; host or cells: splenocytes from the spleen of male C57BL/6 mice
T1 sequence (Q9EQU3 26-1032): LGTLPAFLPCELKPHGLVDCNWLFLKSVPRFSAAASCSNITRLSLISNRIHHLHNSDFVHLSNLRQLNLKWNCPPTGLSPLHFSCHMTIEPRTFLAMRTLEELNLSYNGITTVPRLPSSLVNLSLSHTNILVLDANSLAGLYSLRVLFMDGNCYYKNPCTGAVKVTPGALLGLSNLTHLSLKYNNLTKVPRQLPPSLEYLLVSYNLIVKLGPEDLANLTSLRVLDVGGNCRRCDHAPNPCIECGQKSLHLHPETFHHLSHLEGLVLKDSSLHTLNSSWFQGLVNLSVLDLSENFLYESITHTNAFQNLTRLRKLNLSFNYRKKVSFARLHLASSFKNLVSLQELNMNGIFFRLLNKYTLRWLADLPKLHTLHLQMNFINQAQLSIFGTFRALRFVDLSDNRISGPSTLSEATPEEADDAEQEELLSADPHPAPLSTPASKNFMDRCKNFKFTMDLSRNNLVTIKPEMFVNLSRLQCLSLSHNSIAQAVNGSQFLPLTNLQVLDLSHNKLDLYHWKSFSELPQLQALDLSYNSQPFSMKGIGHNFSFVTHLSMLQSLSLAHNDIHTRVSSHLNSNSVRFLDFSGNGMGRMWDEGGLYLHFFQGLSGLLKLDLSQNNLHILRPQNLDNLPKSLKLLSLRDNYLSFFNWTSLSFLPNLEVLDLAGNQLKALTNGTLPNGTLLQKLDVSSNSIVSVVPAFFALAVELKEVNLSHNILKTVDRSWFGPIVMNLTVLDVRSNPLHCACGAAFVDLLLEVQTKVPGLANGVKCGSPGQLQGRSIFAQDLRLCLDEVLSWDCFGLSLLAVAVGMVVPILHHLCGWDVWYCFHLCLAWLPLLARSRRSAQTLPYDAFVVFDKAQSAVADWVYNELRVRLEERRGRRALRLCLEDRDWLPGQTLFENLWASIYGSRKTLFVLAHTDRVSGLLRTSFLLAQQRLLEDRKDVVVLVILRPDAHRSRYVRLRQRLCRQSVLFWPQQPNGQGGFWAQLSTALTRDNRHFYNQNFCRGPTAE
Assay: mTLR9 antagonism (IL-6 and TNF-α release assay) in mouse splenocytes, CpG ODN-2006 stimulated
Format: cell-based
Conditions: 1 μM, mouse splenocytes
From the text: mTLR9 and mTLR7 Antagonism (Cytokine Release Assay) in Mouse Splenocytes
TLR7 ligand R0006 (IDT, 5′-rU*rU*rG*rU*rU*rG*rU*rU*rG*rU*rU*rG*rU*rU*rG*rU*rU*rG*rU*rU-3′ (SEQ ID NO:1)), Liposomal transfection reagent—DOTAP (Roche, Cat. No. 11202375001), TLR9 ligand CpG ODN2006 (Sequence: T*C*G*T*C*G*T*T*T*T*G*T*C*G*T*T*T*T*G*T*C*G*T*T; *=phosphorothioate (SEQ ID NO:2)) DMSO (Sigma, D2650), RPMI Powder (Sigma, R6504), Fetal Bovine Serum (Gibco, 10270), Dulbecco's Phosphate Buffered Saline (Sigma, D1408), 96 well plate (Flat bottom, Costar 3599), ELISA kit for IL-6 (EBioscience, 88-7064-77 and TNFa (EBioscience, 88-7346-88), MACS Buffer (AutoMACS Rinsing Solution (Miltenyl Biotec, 130-091-222)+0.05% BSA), RBC lysis buffer (0.85% NH4Cl), 40 μm cell strainer (BD Falcon, 352340) Method: A. Isolation of Mouse Splenocytes
Mouse spleen was isolated from C57BL6 mouse and stored in 1× chilled PBS buffer until further processed. Spleen was transferred to a sterile petriplate and chopped in to 5-6 pieces in presence of MACS buffer (100 μl) with the help of fresh surgical blade and crushed with flat plunger of a sterile syringe. A uniform suspension was prepared by passing cells through a 40 μm cell strainer. Cells were centrifuged at 450×g for 5 minutes at 4° C., supernatant was discarded and pellet dislodged gently, resuspended in 2 ml of pre-warmed (37° C.) RBC lysis buffer at room temperature with continuous gentle mixing with 1 ml pipette. Lysis buffer was neutralized with 12 ml of chilled MACS buffer and cells were passed through 40 μm cell strainer. Cell suspension was collected in 15 ml MACS buffer and centrifuged at 450×g for 5 minutes at 4° C. Pellet was resuspended in 15 ml MACS buffer and centrifuged at 400×g for 5 minutes. Cells were resuspended in 10 ml of RPMI complete medium and viability was estimated by Trypan blue method.
mTLR9 Antagonism (IL-6 and TNF-α Release Assay):
500 μM stock of CpG ODN-2006 was prepared in sterile, endotoxin-free water. Dilutions of 10× concentrations of NCEs were prepared in incomplete RPMI media, maintaining a final DMSO concentration of 0.3%. NCEs were added in a concentration range of 30 μM to 1 nM in respective wells of assay plate, assay medium containing 0.3% DMSO were added to control wells. 0.2 million splenocytes were added to all the wells and incubated at 37° C. in 5% CO2 incubator for 30 minutes. 1 μg/ml of respective agonist was added to all the wells except those were assigned as negative controls and mixed thoroughly. Incomplete RPMI was added to negative control wells and incubated overnight at 37° C./5% CO2. The plate was centrifuged at 450×g for 5 minutes at room temperature and the supernatant was collected. ELISA was performed as per manufacturer's protocol. S/B Ratio, % Activity and % Inhibition was calculated using MS Excel. IC50 and inhibition curve was generated using Graph Pad Prism.

[1] = IL-6 release, read-out: mTLR9 inhibitory activity (% at 1 μM), IL-6
[2] = TNF-α release, read-out: mTLR9 inhibitory activity (% at 1 μM), TNF-α

Compound | inhibition at 1 µM [1] [%] | inhibition at 1 µM [2] [%]
CN1CCN(c2ccc(-c3nccc4[nH]c(CN5CCOCC5)cc34)cc2)CC1 [Example A2, 4-[[4-[4-(4-methylpiperazin-1-yl)phenyl]-1H-pyrrolo[3,2-c]pyridin-2-yl]methyl] morpholine] | 100 | 94
CCN1CCN(c2ccc(-c3nccc4[nH]c(CN5CCOCC5)cc34)cc2)CC1 [Example A3, 4-[[4-[4-(4-ethylpiperazin-1-yl)phenyl]-1H-pyrrolo[3,2-c]pyridin-2-yl]methyl] morpholine] | 100 | 85
CC(C)N1CCN(c2ccc(-c3nccc4c3cc(CN3CCOCC3)n4C)cc2)CC1 [Example A8, 4-[[4-[4-(4-isopropylpiperazin-1-yl)phenyl]-1-methyl-pyrrolo[3,2-c]pyridin-2-yl]methyl] morpholine] |  | 100
CN1CCN(c2ccc(-c3nccc4c3cc(CN3CCOCC3)n4C)cc2)CC1 [Example A9, 4-[[1-methyl-4-[4-(4-methylpiperazin-1-yl)phenyl]pyrrolo[3,2-c]pyridin-2-yl]methyl] morpholine] |  | 94
CC(C)N1CCN(c2ccc(-c3nccc4[nH]c(CN5CCC(O)CC5)cc34)cc2)CC1 [Example A12, 1-[[4-[4-(4-isopropylpiperazin-1-yl)phenyl]-1H-pyrrolo[3,2-c]pyridin-2-yl]methyl] piperidin-4-ol] | 95 | 52
CC(C)N1CCN(c2ccc(-c3nccc4[nH]c(CN5CCC6(CC5)CC(O)C6)cc34)cc2)CC1 [Example A13, 7-[[4-[4-(4-isopropylpiperazin-1-yl)phenyl]-1H-pyrrolo[3,2-c]pyridin-2-yl]methyl]-7-azaspiro[3.5] nonan-2-ol] | 100 | 91
CC(C)N1CCN(c2ccc(-c3nccc4[nH]c(CN5CC(F)C5)cc34)cc2)CC1 [Example A16, 2-[(3-fluoroazetidin-1-yl)methyl]-4-[4-(4-isopropylpiperazin-1-yl)phenyl]-1H-pyrrolo[3,2-c]pyridine] | 100 | 100
CC(C)N1CCN(c2ccc(-c3nccc4[nH]c(CN5CCCCC5)cc34)cc2)CC1 [Example A17, 4-[4-(4-isopropylpiperazin-1-yl)phenyl]-2-(1-piperidylmethyl)-1H-pyrrolo[3,2-c]pyridine] | 100 | 100
CC(C)N1CCN(c2ccc(-c3nccc4[nH]c(CN5CCC(F)CC5)cc34)cc2)CC1 [Example A24, 2-[(4-fluoro-1-piperidyl)methyl]-4-[4-(4-isopropylpiperazin-yl)phenyl]-1H-pyrrolo[3,2-c] pyridine] |  | 100
CN1CCN(c2ccc(-c3nccc4[nH]c(CN5CCC(F)CC5)cc34)cc2)CC1 [Example A25, 2-[(4-fluoro-1-piperidyl)methyl]-4-[4-(4-methylpiperazin-1-yl)phenyl] - 1H-pyrrolo[3,2-c]pyridine] | 100 | 100
Cc1cc2[nH]c(Cn3cccn3)cc2c(-c2ccc(N3CCN(C(C)C)CC3)cc2)n1 [Example A28, 4-[4-(4-isopropylpiperazin-1-yl)phenyl]-6-methyl-2-(pyrazol-1-ylmethyl)-1H-pyrrolo[3,2-c]pyridine] | 100 | 100
CN1CCN(c2ccc(-c3nc(C4CC4)cc4[nH]c(CN5CCOCC5)cc34)cc2)CC1 [Example A34, 4-[[6-cyclopropyl-4-[4-(4-methylpiperazin-1-yl)phenyl]-1H-pyrrolo[3,2-c]pyridin-2-yl]methyl] morpholine] |  | 93

The next lines start with the values.

inhibition at 1 µM [1] [%] | inhibition at 1 µM [2] [%] | Compound
100 | 94 | CC(C)N1CCN(c2ccc(-c3nccc4[nH]c(CN5CCOCC5)cc34)cc2)CC1 [Example A1, 4-[[4-[4-(4-isopropylpiperazin-1-yl)phenyl]-1H-pyrrolo[3,2-c]pyridin-2-yl]methyl]morpholine]
100 | 100 | Cc1cc2[nH]c(CN3CCOCC3)cc2c(-c2ccc(N3CCN(C(C)C)CC3)cc2)n1 [Example A4, 4-[[4-[4-[4-isopropylpiperazin-1-yl)phenyl]-6-methyl-1H-pyrrolo[3,2-c]pyridin-2-yl]methyl] morpholine]
100 | 91 | CCN1CCN(c2ccc(-c3nc(C)cc4[nH]c(CN5CCOCC5)cc34)cc2)CC1 [Example A5, 4-[[4-[4-(4-ethylpiperazin-1-yl)phenyl]-6-methyl-1H-pyrrolo[3,2-c]pyridin-2-yl]methyl] morpholine]
96 | 64 | Cc1cc2[nH]c(CN3CCC4(CC3)CC(O)C4)cc2c(-c2ccc(N3CCN(C(C)C)CC3)cc2)n1 [Example A29, 7-[[4-[4-(4-isopropylpiperazin-1-yl)phenyl]-6-methyl-1H-pyrrolo[3,2-c]pyridin-2-yl]methyl]-7-azaspiro[3.5] nonan-2-ol]
100 | 100 | Cc1cc2[nH]c(CN3CCC4(CC3)CC(C)C4)cc2c(-c2ccc(N3CCN(C(C)C)CC3)cc2)n1 [Example A30, 4-[4-(4-isopropylpiperazin-1-yl)phenyl]-6-methyl-2-[(2-methyl-7-azaspiro[3.5]nonan-7-yl)methyl]-1H-pyrrolo[3,2-c]pyridine]
 | 85 | CC(C)N1CCN(c2ccc(-c3nc(C4CC4)cc4[nH]c(CN5CCOCC5)cc34)cc2)CC1 [Example A33, 4-[[6-cyclopropyl-4-[4-(4-isopropylpiperazin-1-yl)phenyl]-1H-pyrrolo[3,2-c]pyridin-2-yl]methyl] morpholine]
100 | 90 | Cc1cc2c(cc(CN3CCOCC3)n2C)c(-c2ccc(N3CCN(C(C)C)CC3)cc2)n1 [Example A35, 4-[[4-[4-(4-isopropylpiperazin-1-yl]phenyl]-1,6-dimethyl-pyrrolo[3,2-c]pyridin-2-yl]methyl] morpholine]
 | 100 | Cc1nc(-c2ccc(N3CCN(C(C)C)CC3)cc2)c2cc(CN3CCOCC3)[nH]c2c1C [Example A36, 4-[[4-[4-(4-isopropylpiperazin-1-yl)phenyl]-6,7-dimethyl-1H-pyrrolo[3,2-c]pyridin-2-yl]methyl] morpholine]
